Consider 13 compounds from patent US12662489B2 (Sitryx Therapeutics Limited, priority 2023, dated 2026).

In experiment [1] the target is T1, MTHFD1 recombinant human enzyme (Homo sapiens, UniProt P11586).
T1 sequence (P11586 2-291 limits assumed): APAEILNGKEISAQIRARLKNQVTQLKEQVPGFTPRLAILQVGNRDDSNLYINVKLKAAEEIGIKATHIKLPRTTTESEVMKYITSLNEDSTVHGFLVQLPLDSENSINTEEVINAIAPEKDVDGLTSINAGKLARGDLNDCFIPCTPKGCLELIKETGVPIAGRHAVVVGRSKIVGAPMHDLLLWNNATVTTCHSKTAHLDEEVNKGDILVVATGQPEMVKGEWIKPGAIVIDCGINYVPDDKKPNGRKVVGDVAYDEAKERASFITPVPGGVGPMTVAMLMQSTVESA
Briefly: MTHFD1 inhibition assay (NAD(P)H-Glo luminescence). To be noted: MTHFD1 IC50, recombinant human enzyme 200 nM, NADP, band.

In another experiment the test system is human CD4+ T cells. As to the kind of experiment: Human CD4+ T-cell proliferation assay (CFSE, CD3/28 beads). To be noted: read-out: Proliferation IC50.
Experiment [2] has as its target T2, MTHFD2 recombinant human enzyme (Homo sapiens, UniProt P13995).
T2 sequence (P13995 36-350): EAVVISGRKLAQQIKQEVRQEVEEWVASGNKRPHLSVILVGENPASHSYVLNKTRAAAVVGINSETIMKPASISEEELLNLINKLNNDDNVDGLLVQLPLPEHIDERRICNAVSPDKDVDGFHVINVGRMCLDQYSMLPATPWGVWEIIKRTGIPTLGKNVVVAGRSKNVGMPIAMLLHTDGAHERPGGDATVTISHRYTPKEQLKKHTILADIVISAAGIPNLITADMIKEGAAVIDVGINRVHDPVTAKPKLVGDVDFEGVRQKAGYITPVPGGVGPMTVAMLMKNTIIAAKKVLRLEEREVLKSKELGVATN
As to the kind of experiment: MTHFD2 inhibition assay (NAD(P)H-Glo luminescence). The conditions noted are these: for MTHFD1/MTHFD2 IC50 ratio: selectivity of MTHFD2 inhibition over MTHFD1, band.

pIC50: −log10 of the molar value.

`COC[C@H]1CN(c2cc(Cl)c3c4c(c(=O)oc3c2C)CN(C(=O)c2cc(N(C)C)c(C(=O)NS(=O)(=O)N3CC[C@H](F)C3)cc2F)CC4)CCN1C` [Example 302, 4-(10-chloro-8-((R)-3-(methoxymethyl)-4-methylpiperazin-1-yl)-7-methyl-5-oxo-1,3,4,5-tetrahydro-2H-chromeno[3,4-c]pyridine-3-carbonyl)-2-(dimethylamino)-5-fluoro-N-(((S)-3-fluoropyrrolidin-1-yl)sulfonyl)benzamide]: the pIC50 in experiment [1] is 6.00 to 7.00; in the experiment with human CD4+ T cells it was 7.52 to 8.00; in experiment [2] it was 7.00 to 8.00. The “MTHFD1/MTHFD2 IC50 ratio” value in experiment [2] was “J (>30)”.

In the case of `COC[C@H]1CN(c2cc(Cl)c3c4c(c(=O)oc3c2C)CN(C(=O)c2cc(N(C)C)c(C(=O)NS(=O)(=O)N3CC[C@@H](F)C3)cc2F)CC4)CCN1C` [Example 303, 4-(10-chloro-8-((R)-3-(methoxymethyl)-4-methylpiperazin-1-yl)-7-methyl-5-oxo-1,3,4,5-tetrahydro-2H-chromeno[3,4-c]pyridine-3-carbonyl)-2-(dimethylamino)-5-fluoro-N-(((R)-3-fluoropyrrolidin-1-yl)sulfonyl)benzamide], the pIC50 in experiment [1] is 6.00 to 7.00; in the experiment with human CD4+ T cells, 7.52 to 8.00; in experiment [2] it was 8.00 to 9.00. The “MTHFD1/MTHFD2 IC50 ratio” value in experiment [2] is listed as “J (>30)”.

Consider `COC[C@H]1CN(c2cc(F)c3c4c(c(=O)oc3c2C)CN(C(=O)c2cc(N(C)C)c(C(=O)NS(=O)(=O)N3C5CCC3CC5)cc2F)CC4)CCN1C` [Example 304, (R)-N-((7-azabicyclo[2.2.1]heptan-7-yl)sulfonyl)-2-(dimethylamino)-5-fluoro-4-(10-fluoro-8-(3-(methoxymethyl)-4-methylpiperazin-1-yl)-7-methyl-5-oxo-1,3,4,5-tetrahydro-2H-chromeno[3,4-c]pyridine-3-carbonyl)benzamide], for which the results for the pIC50 (in experiment [1]; in the experiment with human CD4+ T cells; in experiment [2]) were 5.30 to 6.00, 7.52 to 8.00 and 7.00 to 8.00, respectively.

`COC[C@H]1CN(c2cc(F)c3c4c(c(=O)oc3c2C)CN(C(=O)c2cc(N(C)C)c(C(=O)NS(=O)(=O)N3CCCC3)cc2F)CC4)CCN1C` [Example 308, (R)-2-(dimethylamino)-5-fluoro-4-(10-fluoro-8-(3-(methoxymethyl)-4-methylpiperazin-1-yl)-7-methyl-5-oxo-1,3,4,5-tetrahydro-2H-chromeno[3,4-c]pyridine-3-carbonyl)-N-(pyrrolidin-1-ylsulfonyl)benzamide]: the pIC50 in experiment [1] is 6.00 to 7.00; with human CD4+ T cells, 8.00 to 9.00; in experiment [2] it was 8.00 to 9.00. The “MTHFD1/MTHFD2 IC50 ratio” value in experiment [2] is listed as “J (>30)”.

With `COC[C@H]1CN(c2cc(Cl)c3c4c(c(=O)oc3c2C)CN(C(=O)c2cc(F)c(C(=O)NS(=O)(=O)N3CCCC3)cc2C)CC4)CCN1C` [Example 310, (R)-4-(10-chloro-8-(3-(methoxymethyl)-4-methylpiperazin-1-yl)-7-methyl-5-oxo-1,3,4,5-tetrahydro-2H-chromeno[3,4-c]pyridine-3-carbonyl)-2-fluoro-5-methyl-N-(pyrrolidin-1-ylsulfonyl)benzamide], the figures for the pIC50 (in experiment [1]; in the experiment on human CD4+ T cells; in experiment [2]) were 5.30 to 6.00, 7.00 to 7.52 and 7.00 to 8.00, respectively. The “MTHFD1/MTHFD2 IC50 ratio” value in experiment [2] is recorded as “J (>30)”.

On to `COC[C@H]1CN(c2cc(C)c3c4c(c(=O)oc3c2C)CN(C(=O)c2cc(N(C)C)c(C(=O)NS(=O)(=O)N3CCC[C@@H]3COC)cc2F)CC4)CCN1C` [Example 311, 2-(dimethylamino)-5-fluoro-4-(8-((R)-3-(methoxymethyl)-4-methylpiperazin-1-yl)-7,10-dimethyl-5-oxo-1,3,4,5-tetrahydro-2H-chromeno[3,4-c]pyridine-3-carbonyl)-N-(((R)-2-(methoxymethyl)pyrrolidin-1-yl)sulfonyl)benzamide], for which the values for the pIC50 (in experiment [1]; in the experiment on human CD4+ T cells; in experiment [2]) were 5.30 to 6.00, 8.00 to 9.00 and 8.00 to 9.00, respectively. Moreover, the “MTHFD1/MTHFD2 IC50 ratio” value in experiment [2] is “J (>30)”.

`COC[C@H]1CN(c2cc(C)c3c4c(c(=O)oc3c2C)CN(C(=O)c2cc(N(C)C)c(C(=O)NS(=O)(=O)N3CCC[C@H]3COC)cc2F)CC4)CCN1C` [Example 312, 2-(dimethylamino)-5-fluoro-4-(8-((R)-3-(methoxymethyl)-4-methylpiperazin-1-yl)-7,10-dimethyl-5-oxo-1,3,4,5-tetrahydro-2H-chromeno[3,4-c]pyridine-3-carbonyl)-N-(((S)-2-(methoxymethyl)pyrrolidin-1-yl)sulfonyl)benzamide]: the pIC50 was 6.00 to 7.00 in experiment [1], 7.52 to 8.00 in the experiment with human CD4+ T cells and 8.00 to 9.00 in experiment [2]. The “MTHFD1/MTHFD2 IC50 ratio” value in experiment [2] was “J (>30)”.

Take `COC[C@H]1CN(c2cc(C)c3c4c(c(=O)oc3c2C)CN(C(=O)c2cc(N(C)C)c(C(=O)NS(=O)(=O)N3C[C@@H]5C[C@H]3CO5)cc2F)CC4)CCN1C` [Example 313, N-(((1S,4S)-2-oxa-5-azabicyclo[2.2.1]heptan-5-yl)sulfonyl)-2-(dimethylamino)-5-fluoro-4-(8-((R)-3-(methoxymethyl)-4-methylpiperazin-1-yl)-7,10-dimethyl-5-oxo-1,3,4,5-tetrahydro-2H-chromeno[3,4-c]pyridine-3-carbonyl)benzamide]: the pIC50 in experiment [1] is 6.00 to 7.00; in the experiment with human CD4+ T cells, 7.00 to 7.52; in experiment [2] it was 8.00 to 9.00. Moreover, the “MTHFD1/MTHFD2 IC50 ratio” value in experiment [2] was “J (>30)”.

`COC[C@H]1CN(c2cc(C)c3c4c(c(=O)oc3c2C)CN(C(=O)c2cc(N(C)C)c(C(=O)NS(=O)(=O)N3CC[C@@H](F)C3)cc2F)CC4)CCN1C` [Example 314, 2-(dimethylamino)-5-fluoro-N-(((R)-3-fluoropyrrolidin-1-yl)sulfonyl)-4-(8-((R)-3-(methoxymethyl)-4-methylpiperazin-1-yl)-7,10-dimethyl-5-oxo-1,3,4,5-tetrahydro-2H-chromeno[3,4-c]pyridine-3-carbonyl)benzamide]: the pIC50 is 6.00 to 7.00 in experiment [1], 8.00 to 9.00 in the experiment on human CD4+ T cells and 8.00 to 9.00 in experiment [2]. Moreover, in experiment [2], the “MTHFD1/MTHFD2 IC50 ratio” value is “H (>9.0 to 30)”.

`COC[C@H]1CN(c2cc(C)c3c4c(c(=O)oc3c2C)CN(C(=O)c2cc(N(C)C)c(C(=O)NS(=O)(=O)N3CC5CC5C3)cc2F)CC4)CCN1C` (stereo partly drawn) [Example 315, N-((3-azabicyclo[3.1.0]hexan-3-yl)sulfonyl)-2-(dimethylamino)-5-fluoro-4-(8-((R)-3-(methoxymethyl)-4-methylpiperazin-1-yl)-7,10-dimethyl-5-oxo-1,3,4,5-tetrahydro-2H-chromeno[3,4-c]pyridine-3-carbonyl)benzamide]: the pIC50 in experiment [1] is 6.00 to 7.00; with human CD4+ T cells it was 8.00 to 9.00; in experiment [2] it was 8.00 to 9.00. Besides, the “MTHFD1/MTHFD2 IC50 ratio” value in experiment [2] was “J (>30)”.

`COC[C@H]1CN(c2cc(Cl)c3c4c(c(=O)oc3c2C)CN(C(=O)c2cc(N(C)C)c(C(=O)NS(=O)(=O)N3C5CCC3CC5)cc2F)CC4)CCN1C` [Example 316, (R)-N-((7-azabicyclo[2.2.1]heptan-7-yl)sulfonyl)-4-(10-chloro-8-(3-(methoxymethyl)-4-methylpiperazin-1-yl)-7-methyl-5-oxo-1,3,4,5-tetrahydro-2H-chromeno[3,4-c]pyridine-3-carbonyl)-2-(dimethylamino)-5-fluorobenzamide]: the results for the pIC50 (in experiment [1]; in the experiment with human CD4+ T cells; in experiment [2]) were 5.30 to 6.00, 7.00 to 7.52 and 7.00 to 8.00, respectively. Also, in experiment [2], the “MTHFD1/MTHFD2 IC50 ratio” value is recorded as “J (>30)”.

As to `COC[C@H]1CN(c2cc(Cl)c3c4c(c(=O)oc3c2C)CN(C(=O)c2cc(N(C)C)c(C(=O)NS(=O)(=O)N3CC5(CCC5)C3)cc2F)CC4)CCN1C` [Example 318, (R)-N-((2-azaspiro[3.3]heptan-2-yl)sulfonyl)-4-(10-chloro-8-(3-(methoxymethyl)-4-methylpiperazin-1-yl)-7-methyl-5-oxo-1,3,4,5-tetrahydro-2H-chromeno[3,4-c]pyridine-3-carbonyl)-2-(dimethylamino)-5-fluorobenzamide], the figures for the pIC50 (in experiment [1]; with human CD4+ T cells; in experiment [2]) were 6.00 to 7.00, 7.52 to 8.00 and 8.00 to 9.00, respectively. In experiment [2], the “MTHFD1/MTHFD2 IC50 ratio” value is “J (>30)”.

Turning to `COC[C@H]1CN(c2cc(Cl)c3c4c(c(=O)oc3c2C)CN(C(=O)c2cc(F)c(C(=O)NS(=O)(=O)N3CCCC3)cc2OC)CC4)CCN1C` [Example 319, (R)-4-(10-chloro-8-(3-(methoxymethyl)-4-methylpiperazin-1-yl)-7-methyl-5-oxo-1,3,4,5-tetrahydro-2H-chromeno[3,4-c]pyridine-3-carbonyl)-2-fluoro-5-methoxy-N-(pyrrolidin-1-ylsulfonyl)benzamide], the pIC50 in experiment [1] is 5.30 to 6.00; in the experiment with human CD4+ T cells it was 6.00 to 7.00; in experiment [2], 7.00 to 8.00. Besides, in experiment [2], the “MTHFD1/MTHFD2 IC50 ratio” value is “J (>30)”.
